Experimental findings from paper PMC9415509, “Pro-Apoptotic Antitumoral Effect of Novel Acridine-Core Naphthoquinone Compounds against Oral Squamous Cell Carcinoma” (Molecules, 2022) are described below.

One data set in a line: Hemolysis assay. The following applies: human, human erythrocytes, relative to triton x-100 = 100% lysis. Type of data set: cell-based. How it is done: Hemolysis assay. To determine the surfactant power of substances in biological membranes, a hemolysis assay was performed using human blood approved by the Research Ethics Committee of Universidade Federal Fluminense (CAAE: 43134721.4.0000.5626). Erythrocytes were collected for centrifugation at 1500 rpm for 15 min, washed with PBS (phosphate-buffered saline) supplemented with 10 mM glucose, and counted in an automatic cell counter (Thermo Fisher, Waltham, MA, USA). Erythrocytes were then plated in 96-well plates at a concentration of 4 × 10^8 cells/well in triplicates, and 10 µL of compounds was added at a final concentration of 300 µM in PBS with glucose (final volume 100 µL). In total, 10 µL of PBS was used as a negative control and 10 µL of PBS with 0.1% Triton ×100 as a positive control. Data reading was performed with EPOCH (BioTek Instruments, Winooski, VT, USA) at an absorbance of 540 nm, and the statistical data were generated using the […] Prism 5.0 program (Intuitive Software for Science, San Diego, CA, USA).

The test system of data set [1] is OSCC cells (SCC-4, SCC-9, SCC-25). The data set can be described thus: MTT cytotoxicity and selectivity, mean over OSCC cell lines. In kind it is cell-based, human. The method, then: (§1) Cell viability assay (cytotoxicity) and compound stability assay. The viability of SCC cell lines and primary human fibroblast cells was evaluated using the MTT assay as in [48]. Briefly, the cells were grown in triplicates in 96-well plates (5 × 10^3 cells/well) until confluence. Then, the medium was removed, fresh medium was added, and the cells were returned to the incubator in the presence of different compounds. DMSO at the same concentrations was used as a 100% cell viability control. After 48 h, the cells were incubated with 5 mg/mL MTT reagent (3-(4,5-dimethyl-2-thiazolyl)-2,5-diphenyl-2-H-tetrazolium bromide) (Sigma-Aldrich Co., St. Louis, MO, USA) for 3.5 h. After that, formazan crystals were dissolved in MTT solvent solution (DMSO/methanol 1:1 v/v) and the absorbance at 560 nm was evaluated using an EPOCH microplate spectrophotometer (BioTek Instruments, Winooski, VT, USA) with the background absorbance at 670 nm subtracted.
Statistical analysis, IC50 calculation. The data are presented as means ±\SD. IC50 values for the MTT assays were obtained by nonlinear regression using the […] […] The selectivity index was calculated as SI = IC50 of the compound in normal oral fibroblast cells/IC50 of the same compound for each oral cancer cell line (SCC-4, SCC-9, and SCC-25) and the mean was calculated when indicated.

Data set [2] concerns SCC9 cells. The data set can be described thus: ROS production (ROS-Glo H2O2 assay). Type of data set: cell-based, human. The following applies: SCC9, 2 × IC50, 3, 6, 24 and 48 h. How it is done:
ROS production. The hydrogen peroxide (H2O2) luminescence assay was performed using the ROS-Glo™ H2O2 assay kit (Promega Corporation, Madison, WI, USA). […] A plate with wells without cells was used as a control. The cells and cell-free wells remained in treatment at the times of interest and, 2 h before the completion of the times, the well volumes were removed to reduce to 40 µL per well. Then, the positive control of menadione, a polycyclic aromatic ketone based on 1,4-naphthoquinone, was used to treat its respective well, and H2O2 substrate was added for all treatments, followed by the incubation of the plate for the 2 h remaining. After the times of 3, 6, 24, and 48 h, the detection solution was added, and the plates remained at room temperature for 20 min, following the reading in the luminometer.

In the next data set the test system is SCC4 OSCC cell line. In words: MTT cell viability assay (cytotoxicity), SCC4. Type of data set: cell-based, human. How it is done:
Cells and reagents. Human SCC-4, SCC-9, and SCC-25 cells, derived from a human oral tongue SCC (squamous cell carcinoma) were obtained from the ATCC (CRL-1624, CRL-1629, and CRL-1628, respectively) and maintained in 1:1 DMEM/F12 (Dulbecco’s modified Eagle medium and Ham’s F12 medium; Gibco (Thermo Fisher, Waltham, MA, USA)) supplemented with 10% (v/v) FBS (fetal bovine serum; Invitrogen, Thermo Fisher, Waltham, MA, USA) and 400 ng/mL hydrocortisone (Sigma-Aldrich Co., St. Louis, MO, USA). Primary normal human gingival fibroblasts were obtained from the ATCC (PCS-201-018) and maintained in DMEM supplemented with 10% (v/v) FBS and were used in a maximum of six passages. The cells were grown in a humidified environment containing 5% CO2 at 37 °C. […] Carboplatin stock was prepared in water (Fauldcarbo®; LibbsFarmacêutica, São Paulo, SP, Brazil) and was used as a standard anticancer compound.
as §1
Statistical analysis, IC50 calculation. The data are presented as means ±\SD. IC50 values for the MTT assays were obtained by nonlinear regression using the […] 5.0 program (Intuitive Software for Science, San Diego, CA, USA) from at least three independent experiments. A dose–response (inhibitor) vs. response curve using the least squares method was used to determine the IC50, SD, and R^2 of the data. The selectivity index was calculated as SI = IC50 of the compound in normal oral fibroblast cells/IC50 of the same compound for each oral cancer cell line (SCC-4, SCC-9, and SCC-25) and the mean was calculated when indicated.

Data set [3] concerns SCC9 cells. In words: SubG1 analysis (DNA fragmentation), flow cytometry. The following applies: SCC9, 72 h of treatment, PI staining. In kind it is cell-based, human. The method, then: Cell cycle and SubG1 analysis. To evaluate the action of compound 4e on the cell cycle and DNA fragmentation, cells of the SCC9 cell line were plated in a 6-well plate (5 × 10^5 cells/well). After 48 (cell cycle) or 72 h (DNA fragmentation) of treatment, the cells were trypsinized and stained with propidium iodide (75 µM) in the presence of NP-40. The DNA content was analyzed by collecting 10,000 events using a FACScalibur flow cytometer. The data were analyzed using CellQuest (BD Biosciences, Franklin Lakes, NJ, USA) and FlowJo (Tree Star Inc., Ashland, OR, USA) software as in [49].

A further data set has as its system SCC9-LC3-GFP cells. The data set can be described thus: Autophagy assay (LC3-GFP puncta). The following applies: 4e 2 × IC50, 48 h; CPP 20% (v/v) 4–6 h. In kind it is cell-based, human. The method, then:
Autophagy assay. To determine if compound 4e induces autophagy, SCC9 cells were stably transduced with LC3-GFP expressing plasmid. For the generation of SCC9 cell lines harboring LC3-GFP, HEK293FT cells were transfected with 3 µg of each helper plasmids (pMDLglpRRE, pHCMV g, and pRSVrev) and 8 µg of the pLV-CMV-SV40-Puro-GFP-LC3 using calcium phosphate and 25 µM chloroquine. Twenty-four hours later, a lentivirus-containing medium was harvested, supplemented with 8 µg/mL of Polybrene, and used to transduce SCC9 cells. Twenty-four hours later, the transduced cells were selected with 5 µg/mL of Puromycin for 7 days. The cells were then cultured with 2.5 µg/mL Puromycin for further experiments. The lentiviral construct encoding pLV-CMV-SV40-Puro-GFP-LC3 was a gift from Dr. SilvyaStuchi Maria Engler. […] As a positive control, calcium phosphate precipitates (CPP) were prepared by adding CaCl2 dropwise to Na2HPO4 (in Hepes, pH 7.05) as previously described. CPP 20% (v/v) was administrated to the cells 4–6 h before analysis.

The structures appear in SMILES notation. Where “and” joins values, the source holds several entries; their conditions need not be identical. Identical values can stand only once.

As usually defined, the IC50 is the concentration that inhibits the measured activity by half.

In turn, `CC1(C)CC(=O)C2=C(C1)NC1=C(C(=O)c3ccccc3C1=O)C2c1ccc(Cl)cc1Cl` (centres unmarked) [4e, 12-(2,4-dichlorophenyl)-3,3-dimethyl-3,4-dihydrobenzo[b]acridine-1,6,11(2H,5H,12H)-trione] registered a hemolysis at 300 µM in the data set “Hemolysis assay” of less than 3%. The half-maximal inhibitory concentration (IC50) in data set [1] (Homo sapiens, mean of SCC4, SCC9, SCC25) stood at 30 µM; with SCC4 OSCC cell line (Homo sapiens, SCC-4, SCC4, 48 h, MTT, read-out: Oral Tumor Cells SCC4 IC50), 53.8 µM. In addition, in data set [1] (mean over OSCC cell lines vs normal fibroblasts), the “SI (mean selectivity index)” value was 2.9 and 2.93. Moreover, the ROS production result in the data set on SCC9 cells [2] is recorded as “low production of ROS”. Also, the “SCC4 S.I.” value in the data set on SCC4 OSCC cell line (IC50 normal oral fibroblasts / IC50 SCC4) came to 1.6. In the data set with SCC9 cells [3], the “DNA fragmentation (Sub-G1 DNA-content), cells” value was 25.5% and ~ 25%. Besides, in the data set with SCC9-LC3-GFP cells, the “LC3-GFP puncta formation (autophagy)” value is “neither DMSO nor 4e were able to induce this cell death process”.
